# Reference: patent publication US20140113874A1, “Modified Compstatin With Improved Stability And Binding Properties” (THE TRUSTEES OF THE UNIVERSITY OF PENNSYLVANIA, priority 2010, published 2014)
# Numbered stars: 1 amine (or outer) side, 2 acyl side, 3 side chain; on linkers, the order of the positions; unused ones are H or OH. Bridge positions count the residues as written; N and C are the ends. Square brackets hold non-standard residues; d marks the D form. Peptide text beside a SMILES is read from it. Trp(1-Me) = Cn1cc(C[C@H](N)C(=O)O)c2ccccc21; Abu(4-yl) = O=C([C@H](CC[*:3])N[*:1])[*:2]; NMeI = CC[C@H](C)[C@H](NC)C(=O)O; Sar = CNCC(=O)O
# Assays:
# [1] = test system: classical pathway of complement activation; test: ELISA-based complement inhibition assay (antigen-antibody complex initiated, C3b deposition); format: biochemical; details: for relative activity (rank order) in inhibition of antigen-antibody complex-initiated complement activation: FIG. 4, representative result; for IC50: read-out: IC50, concentration at which the peptides inhibit complement activation by 50%, plasma 1:80 in VB++, average of five datasets
# Procedure: An ELISA-based assay was performed to assess the complement inhibitory ability of the compstatin analogs. Briefly, an antigen-antibody complex was used as an initiator of the classical pathway of complement activation. […] Incubation followed to allow complement activation. The deposition of C3b on the plate was measured by a polyclonal anti-C3 antibody. The percentage of inhibition was plotted against the compstatin concentration and fitted to a logistic dose-response function using OriginPro 8.
# [2] = biological target: C3b (Homo sapiens, UniProt P01024); test: Biacore SPR kinetic analysis on captured biotinylated C3b; details: 1:1 binding model; average of multiple datasets
# Sequence of C3b (P01024 23-667 limits assumed): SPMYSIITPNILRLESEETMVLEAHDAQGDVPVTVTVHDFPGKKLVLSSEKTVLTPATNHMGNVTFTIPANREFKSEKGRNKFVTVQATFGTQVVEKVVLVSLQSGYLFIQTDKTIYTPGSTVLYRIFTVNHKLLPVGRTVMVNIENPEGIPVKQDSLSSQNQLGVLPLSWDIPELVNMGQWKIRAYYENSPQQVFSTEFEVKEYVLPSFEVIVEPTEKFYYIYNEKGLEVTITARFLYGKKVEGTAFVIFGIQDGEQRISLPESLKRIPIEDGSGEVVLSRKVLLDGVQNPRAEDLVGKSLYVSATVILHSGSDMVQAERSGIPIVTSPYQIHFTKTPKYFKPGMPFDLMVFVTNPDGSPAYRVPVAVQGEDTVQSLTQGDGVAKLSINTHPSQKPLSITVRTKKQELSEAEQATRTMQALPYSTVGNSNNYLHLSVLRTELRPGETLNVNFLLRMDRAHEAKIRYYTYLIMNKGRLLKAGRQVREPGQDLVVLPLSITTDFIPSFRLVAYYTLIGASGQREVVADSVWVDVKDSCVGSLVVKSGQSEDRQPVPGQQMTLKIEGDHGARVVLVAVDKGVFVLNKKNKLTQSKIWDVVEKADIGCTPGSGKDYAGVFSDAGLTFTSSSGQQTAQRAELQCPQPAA
# Sequence of C3b (P01024 749-1663 partner limits assumed): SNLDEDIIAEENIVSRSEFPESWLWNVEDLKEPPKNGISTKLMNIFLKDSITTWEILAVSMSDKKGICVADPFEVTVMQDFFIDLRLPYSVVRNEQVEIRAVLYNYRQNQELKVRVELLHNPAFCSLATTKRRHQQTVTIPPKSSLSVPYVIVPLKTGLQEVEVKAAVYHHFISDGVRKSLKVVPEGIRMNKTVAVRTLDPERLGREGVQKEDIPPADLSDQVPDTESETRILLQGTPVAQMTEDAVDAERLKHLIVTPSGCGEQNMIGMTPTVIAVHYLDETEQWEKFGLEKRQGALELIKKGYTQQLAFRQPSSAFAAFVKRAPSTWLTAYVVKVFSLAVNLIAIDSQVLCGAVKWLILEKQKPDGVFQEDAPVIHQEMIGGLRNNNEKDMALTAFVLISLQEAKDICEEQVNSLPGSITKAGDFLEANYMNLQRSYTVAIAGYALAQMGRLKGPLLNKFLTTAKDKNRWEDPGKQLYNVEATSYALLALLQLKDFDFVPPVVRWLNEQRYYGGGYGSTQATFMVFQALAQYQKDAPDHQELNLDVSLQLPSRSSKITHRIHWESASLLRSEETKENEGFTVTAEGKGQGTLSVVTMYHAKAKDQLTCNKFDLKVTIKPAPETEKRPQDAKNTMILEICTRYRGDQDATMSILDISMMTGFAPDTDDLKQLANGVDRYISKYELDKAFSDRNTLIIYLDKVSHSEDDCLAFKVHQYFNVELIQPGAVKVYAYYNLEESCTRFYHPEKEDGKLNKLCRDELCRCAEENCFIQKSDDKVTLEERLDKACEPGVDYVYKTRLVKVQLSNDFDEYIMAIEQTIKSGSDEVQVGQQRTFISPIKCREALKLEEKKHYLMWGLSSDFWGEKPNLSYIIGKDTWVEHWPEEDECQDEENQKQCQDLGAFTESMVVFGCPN
# Procedure: The interaction of the compstatin analogs with C3b was characterized using a Biacore 3000 instrument (GE Healthcare, Corp., Piscataway, N.J.). The running buffer was PBS, pH 7.4 (10 mM sodium phosphate, 150 mM NaCl) with 0.005% Tween-20. Biotinylated C3b was captured site-specifically on a streptravidin chip at about 3000, 4000 and 5000 RU density; an untreated flowcell was used as a reference surface. For kinetic analysis, sets of five samples of increasing concentrations were injected over the chip surface one after the other in a single cycle. […] The data analysis was performed using BiaEvaluation. The processed signals were fitted to a 1:1 binding model and kinetic constants were extracted. […] 2 min injections at 30 ul/min were performed, after which a 3 min dissociation was monitored. […] Data analysis followed using Scrubber (BioLogic Software, Campbell, Australia). The processed signals were globally fitted to a Langmuir 1:1 binding isotherm and kinetic constants were extracted.
# [3] = biological target: Biotinylated C3b (UniProt P01024); test: SPR (Biacore 3000), single-cycle kinetics, peptide over biotinylated C3b captured on streptavidin chip, 1:1 model
# [4] = biological target: T1, Complement C3 (in plasma) (UniProt P01024 23-1663, limits assumed); test: cell-based or functional assay
# T1 sequence (P01024 23-1663 limits assumed): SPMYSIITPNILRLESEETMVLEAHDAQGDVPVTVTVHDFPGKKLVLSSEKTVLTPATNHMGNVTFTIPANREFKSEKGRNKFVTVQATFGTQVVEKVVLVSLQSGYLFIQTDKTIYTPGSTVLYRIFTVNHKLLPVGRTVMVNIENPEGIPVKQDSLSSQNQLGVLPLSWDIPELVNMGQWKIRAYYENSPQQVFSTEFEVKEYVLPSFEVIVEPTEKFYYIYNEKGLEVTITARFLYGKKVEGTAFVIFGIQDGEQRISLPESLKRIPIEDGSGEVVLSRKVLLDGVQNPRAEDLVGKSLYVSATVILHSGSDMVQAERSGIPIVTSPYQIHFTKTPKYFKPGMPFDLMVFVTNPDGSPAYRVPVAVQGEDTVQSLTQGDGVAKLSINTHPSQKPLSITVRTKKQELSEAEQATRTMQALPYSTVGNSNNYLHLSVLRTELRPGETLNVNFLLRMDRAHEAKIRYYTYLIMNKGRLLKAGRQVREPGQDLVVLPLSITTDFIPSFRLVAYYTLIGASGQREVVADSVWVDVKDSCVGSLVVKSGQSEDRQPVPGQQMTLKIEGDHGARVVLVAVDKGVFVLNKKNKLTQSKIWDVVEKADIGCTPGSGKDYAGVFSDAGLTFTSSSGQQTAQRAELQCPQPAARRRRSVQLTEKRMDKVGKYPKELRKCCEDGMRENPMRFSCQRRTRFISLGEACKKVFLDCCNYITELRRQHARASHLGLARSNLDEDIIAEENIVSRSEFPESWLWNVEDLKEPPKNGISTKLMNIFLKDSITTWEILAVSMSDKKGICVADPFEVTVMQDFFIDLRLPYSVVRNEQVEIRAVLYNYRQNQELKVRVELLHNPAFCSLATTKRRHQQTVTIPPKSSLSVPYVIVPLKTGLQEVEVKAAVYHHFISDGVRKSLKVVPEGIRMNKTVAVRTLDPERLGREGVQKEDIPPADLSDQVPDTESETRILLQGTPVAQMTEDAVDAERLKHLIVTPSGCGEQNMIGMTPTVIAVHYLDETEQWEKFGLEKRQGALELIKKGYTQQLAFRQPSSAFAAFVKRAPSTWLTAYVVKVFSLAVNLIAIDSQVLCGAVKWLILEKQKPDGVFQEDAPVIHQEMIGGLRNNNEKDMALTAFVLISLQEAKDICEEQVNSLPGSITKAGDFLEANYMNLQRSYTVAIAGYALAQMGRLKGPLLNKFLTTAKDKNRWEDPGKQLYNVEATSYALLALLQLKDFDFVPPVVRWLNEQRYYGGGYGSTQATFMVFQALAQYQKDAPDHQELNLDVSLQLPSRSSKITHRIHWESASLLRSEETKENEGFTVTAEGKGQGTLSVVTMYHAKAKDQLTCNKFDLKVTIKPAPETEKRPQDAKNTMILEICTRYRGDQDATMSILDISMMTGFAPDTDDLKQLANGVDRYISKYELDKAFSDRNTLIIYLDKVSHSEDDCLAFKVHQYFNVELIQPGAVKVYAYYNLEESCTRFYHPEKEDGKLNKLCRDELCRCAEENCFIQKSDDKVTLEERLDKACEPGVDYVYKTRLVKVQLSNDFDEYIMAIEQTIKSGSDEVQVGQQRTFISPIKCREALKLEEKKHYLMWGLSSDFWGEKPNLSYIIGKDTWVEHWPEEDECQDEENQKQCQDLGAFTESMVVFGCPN
# [5] = biological target: T1, Complement C3 (in plasma); test: cell-based or functional assay; remark: listed apart in the source
molecule,measurement,setting,value
"CC[C@H](C)[C@H](NC(C)=O)C(=O)N[C@H]1CSSC[C@@H](C(=O)N(C)[C@H](C(N)=O)[C@@H](C)CC)NC(=O)[C@H](CCCNC(=N)N)NC(=O)[C@H](Cc2c[nH]cn2)NC(=O)[C@H](C)NC(=O)CN(C)C(=O)[C@H](Cc2c[nH]c3ccccc23)NC(=O)[C@H](CC(=O)O)NC(=O)[C@H](CCC(N)=O)NC(=O)[C@H](Cc2cn(C)c3ccccc23)NC(=O)[C@H](C(C)C)NC1=O [CP20, AC-Ic[CV(^1-MeW)QDW(^N-MeG)AHRC](^N-MeI)-NH2, reference compound]",relative activity (rank order) in inhibition of antigen-antibody complex-initiated complement activation,[1],CP20>delta-Cth CP20>4W9A>delta-Cth>gamma-Cth
same,IC50,[1],130 ± 50 nM
same,kd,[2],0.4 ± 0.1 10^−2 s^−1
"CC[C@H](C)[C@H](NC(C)=O)C(=O)N[C@H]1CSCC[C@@H](C(=O)N(C)[C@H](C(N)=O)[C@@H](C)CC)NC(=O)[C@H](CCCNC(=N)N)NC(=O)[C@H](Cc2c[nH]cn2)NC(=O)[C@H](C)NC(=O)CN(C)C(=O)[C@H](Cc2c[nH]c3ccccc23)NC(=O)[C@H](CC(=O)O)NC(=O)[C@H](CCC(N)=O)NC(=O)[C@H](Cc2cn(C)c3ccccc23)NC(=O)[C@H](C(C)C)NC1=O [Delta-Cth CP20, Ac-Ic[CV(^1-MeW)QDW(^N-MeG)AHRC](^N-MeI)-NH2] (Ac-ICV[Trp(1-Me)]QDW[Sar]AHR[Abu(4-yl)][NMeI]-NH2; thioether 2-12)",relative activity (rank order) in inhibition of antigen-antibody complex-initiated complement activation,[1],CP20>delta-Cth CP20>4W9A>delta-Cth>gamma-Cth
same,IC50,[1],260 ± 90 nM
same,kd,[2],1.5 ± 0.4 10^−2 s^−1
CC[C@H](C)[C@H](NC(C)=O)C(=O)N[C@H]1CSCC[C@@H](C(=O)N[C@H](C(N)=O)[C@@H](C)O)NC(=O)[C@H](CCCNC(=N)N)NC(=O)[C@H](Cc2c[nH]cn2)NC(=O)[C@H](C)NC(=O)CNC(=O)[C@H](Cc2c[nH]c3ccccc23)NC(=O)[C@H](CC(=O)O)NC(=O)[C@H](CCC(N)=O)NC(=O)[C@H](Cc2c[nH]c3ccccc23)NC(=O)[C@H](C(C)C)NC1=O [Delta-Cth] (Ac-ICVWQDWGAHR[Abu(4-yl)]T-NH2; thioether 2-12),kd,[2],11 ± 1.9 10^−2 s^−1
CC[C@H](C)[C@H](NC(C)=O)C(=O)N[C@H]1CCSC[C@@H](C(=O)N[C@H](C(N)=O)[C@@H](C)O)NC(=O)[C@H](CCCNC(=N)N)NC(=O)[C@H](Cc2c[nH]cn2)NC(=O)[C@H](C)NC(=O)CNC(=O)[C@H](Cc2c[nH]c3ccccc23)NC(=O)[C@H](CC(=O)O)NC(=O)[C@H](CCC(N)=O)NC(=O)[C@H](Cc2c[nH]c3ccccc23)NC(=O)[C@H](C(C)C)NC1=O [Gamma-Cth] (Ac-I[Abu(4-yl)]VWQDWGAHRCT-NH2; thioether 2-12),kd,[2],46.8 ± 5.7 10^−2 s^−1
CP20 compstatin analog (disulfide control) (peptide),Kd,[3],2.4 nM
same,koff,[3],0.004 s⁻¹
same,kon,[3],1.86e+06 M⁻¹ s⁻¹
Ac-ICV[Trp(1-Me)]QDW[Sar]AHRC[NMeI]-NH2 (disulfide 2-12; SMILES CC[C@H](C)[C@H](NC(C)=O)C(=O)N[C@H]1CSSC[C@@H](C(=O)N(C)[C@H](C(N)=O)[C@@H](C)CC)NC(=O)[C@H](CCCNC(=N)N)NC(=O)[C@H](Cc2c[nH]cn2)NC(=O)[C@H](C)NC(=O)CN(C)C(=O)[C@H](Cc2c[nH]c3ccccc23)NC(=O)[C@H](CC(=O)O)NC(=O)[C@H](CCC(N)=O)NC(=O)[C@H](Cc2cn(C)c3ccccc23)NC(=O)[C@H](C(C)C)NC1=O) [CP20 compstatin analog (disulfide control)],IC50 (read off the curve),[4],~100 nM
same,"IC50, inhibition of antigen-antibody complex-initiated (classical pathway) complement activation, C3b deposition ELISA",[5],130 nM
ICVWQDWGAHRCI (N-terminal acetyl (Ac-Ile1); 1-methyl-Trp at position 4; N-methyl-Gly at position 8; N-methyl-Ile at position 13; C-terminal amide (-NH2); C2-C12 thioether bond forming delta-cystathionine) [CP20 delta-Cth (delta-cystathionine CP20 compstatin analog)],IC50 (read off the curve),[4],~300 nM
same,"IC50, inhibition of antigen-antibody complex-initiated (classical pathway) complement activation, C3b deposition ELISA",[5],260 nM
